Bounds are passed on as bounds.

What is called IC50 is the concentration that gives 50% inhibition. Low values mean higher potency, high ones lower potency.

Data set [1] concerns the target binding of IL-17A to IL-17RA (Homo sapiens (Human), UniProt Q16552). The data set is described as follows: IL-17A:IL-17RA AlphaLISA. (In general: Alpha assays give light when donor and acceptor beads are brought close together.)
Method: The ability of compounds to inhibit the binding of IL-17A to IL-17RA may be assessed with an AlphaLISA assay.
To assay the compounds of the present invention, 0.1 μL of a test compound stock is serially diluted in 100% DMSO using an Echo Acoustic Liquid Handler (LabCyte Sunnydale, Calif.) in 384 well proxiplates (Perkin Elmer). A 5 μL addition of IL-17RA-FLAG is added to the plate, followed by the addition of 5 μL Avi-tagged IL-17A-His to provide a final concentration of 2 nM of IL-17RA and IL-17A, respectively. The assay is carried out in 20 mM HEPES, 150 mM NaCl, 0.05% Tween-20, 0.1% Human Serum Albumin, pH 7 and 1% DMSO. The assay mixture is allowed to incubate at room temperature for 2 hours. After the 2 hour incubation, 10 μL of streptavidin donor beads (20 μg/ml final) and anti-FLAG acceptor beads (20 μg/ml final) are added to the plate. The plate is allowed to incubate for one hour at room temp, then is read on the Envision (Perkin Elmer). The relative IC50 values are determined using a four parameter fit as shown in equation 1. In this equation, bottom and top are defined as the plateaus of the curve, and H is the Hill Slope.
Another data set has as its target human IL-17A (Homo sapiens (Human), UniProt Q16552).
Data set [2] is described as follows: Mouse oral bioavailability. The data set is classed as in vivo. The conditions noted are these: whole blood (dried blood spot), male mice, IV bolus 1 mg/kg vs oral 3 mg/kg, 8-hour AUC, read-out: % F (mouse). As for the experimental part: Oral bioavailability (% F) for compounds of the invention may be determined in mice by determination of an 8-hour blood plasma AUC (nM*hr) following intravenous and oral administration performed essentially as follows. Male mice (n=3) are administered compound via intravenous (IV) bolus (1 mg/kg) or orally (3 mg/kg). For intravenous administration, a vehicle of 20% w/v capsitol in NaPO4 buffer (25 mM) adjusted to pH 2 in a volume of 5 mL/kg is used. For oral administration, a vehicle of HEC/P80/AF/PW (probe sonicated to afford a homogeneous suspension) in a volume of 10 mL/kg is used. Blood is sampled by saphenous bleeding using K2 EDTA as anticoagulant. Approximately 20 μL of blood (or enough for 1 spot) is collected via a capillary tube and transferred to a card as a dry blood spot. Cards are allowed to dry for at least 2 hours before shipping for analysis. Blood concentration of compounds for each mouse is measured by liquid chromatography/tandem mass spectrometry at time points of 0.08 (IV only), 0.25, 0.5, 0.75, 2, 4, and 8 hours. Oral bioavailability (% F) is determined via the following equation: [% F=(AUC/Dose)PO/(AUC/Dose)IV].

Chain of binding of IL-17A to IL-17RA (Q16552 other isoform, or with tags, fused parts or gaps): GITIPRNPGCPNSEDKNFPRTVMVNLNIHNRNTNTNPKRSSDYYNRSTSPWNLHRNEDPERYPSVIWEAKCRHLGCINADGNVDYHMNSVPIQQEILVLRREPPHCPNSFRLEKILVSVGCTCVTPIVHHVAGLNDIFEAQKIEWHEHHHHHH
Chain of human IL-17A (Q16552 20-155): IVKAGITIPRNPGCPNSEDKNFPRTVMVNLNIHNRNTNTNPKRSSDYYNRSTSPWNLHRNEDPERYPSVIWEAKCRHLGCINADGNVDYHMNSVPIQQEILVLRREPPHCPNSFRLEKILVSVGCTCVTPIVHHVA
Method for human IL-17A: The ability of compounds to neutralize the activity of IL-17A may be assessed with a cell-based human IL-17A neutralization assay conducted essentially as follows. […] After 48 hours, CXCL1/GROα in the culture media is measured using a commercial ELISA kit (#DY275; R&D Systems). Medium alone treatments are included in every experiment to assess the basal levels of CXCL1/GROα. Percent inhibition is calculated using the following equation:

As for `O=C(N[C@H](c1cn2ncc(CN3C[C@@H](C(F)(F)F)NC3=O)cc2n1)C1CCC(F)(F)CC1)c1conc1C1CC1` [Example 1, 3-Cyclopropyl-N—[(S)-(4,4-difluorocyclohexyl)-[7-[[(4S)-2-oxo-4-(trifluoromethyl)imidazolidin-1-yl]methyl]imidazo[1,2-b]pyridazin-2-yl]methyl]isoxazole-4-carboxamide], the values for the half-maximal inhibitory concentration (IC50) (in data set [1]; on human IL-17A) were 0.0157 ± 0.007 µM and 0.0516 ± 0.0235 µM, respectively. For the same compound, the bioavailability in data set [2] amounted to 34%.

For the compound `CCc1nocc1C(=O)N[C@H](c1cn2ncc(CN3C[C@@H](C(F)(F)F)NC3=O)cc2n1)C1CCC(F)(F)CC1` [Example 2, N—[(S)-(4,4-Difluorocyclohexyl)-[7-[[(4S)-2-oxo-4-(trifluoromethyl)imidazolidin-1-yl]methyl]imidazo[1,2-b]pyridazin-2-yl]methyl]-3-ethyl-isoxazole-4-carboxamide], the IC50 in data set [1] came to 0.0152 ± 0.0025 µM; against human IL-17A, 0.0533 ± 0.0264 µM. In addition, the bioavailability in data set [2] was 28%.

As for `Cc1nocc1C(=O)N[C@H](c1cn2ncc(CN3C[C@@H](C(F)(F)F)NC3=O)cc2n1)C1CCC(F)(F)CC1` [Example 3, N—[(S)-(4,4-Difluorocyclohexyl)-[7-[[(4S)-2-oxo-4-(trifluoromethyl)imidazolidin-1-yl]methyl]imidazo[1,2-b]pyridazin-2-yl]methyl]-3-methyl-isoxazole-4-carboxamide], the results for the IC50 (in data set [1]; on human IL-17A) were 0.0277 ± 0.0024 µM and 0.127 µM, respectively. Also, the bioavailability in data set [2] amounted to 35%.

In the case of `O=C(N[C@H](c1cn2ncc(CN3C[C@@H](C(F)(F)F)NC3=O)cc2n1)C1CCC(F)(F)CC1)c1conc1C(F)F` [Example 4, N—[(S)-(4,4-Difluorocyclohexyl)-[7-[[(4S)-2-oxo-4-(trifluoromethyl)imidazolidin-1-yl]methyl]imidazo[1,2-b]pyridazin-2-yl]methyl]-3-(difluoromethyl)isoxazole-4-carboxamide], the IC50 in data set [1] turned out to be 0.013 ± 0.002 µM; on human IL-17A, 0.0937 µM. For the same compound, the bioavailability in data set [2] is 59%.

As for `CC(F)(F)c1nocc1C(=O)N[C@H](c1cn2ncc(CN3C[C@@H](C(F)(F)F)NC3=O)cc2n1)C1CCC(F)(F)CC1` [Example 5, N—[(S)-(4,4-Difluorocyclohexyl)-[7-[[(4S)-2-oxo-4-(trifluoromethyl)imidazolidin-1-yl]methyl]imidazo[1,2-b]pyridazin-2-yl]methyl]-3-(1,1-difluoroethyl)isoxazole-4-carboxamide], the values for the half-inhibitory concentration (IC50) (in data set [1]; on human IL-17A) were 0.02 µM and 0.104 µM, respectively. For the same compound, in data set [2], the bioavailability amounted to 49%.

`Cc1nonc1C(=O)N[C@H](c1cn2ncc(CN3C[C@@H](C(F)(F)F)NC3=O)cc2n1)C1CCC(F)(F)CC1` [Example 6, N—[(S)-(4,4-Difluorocyclohexyl)-[7-[[(4S)-2-oxo-4-(trifluoromethyl)imidazolidin-1-yl]methyl]imidazo[1,2-b]pyridazin-2-yl]methyl]-4-methyl-1,2,5-oxadiazole-3-carboxamide]: the values for the IC50 (in data set [1]; against human IL-17A) were less than 0.00945 µM and 0.0942 µM, respectively. Besides, the bioavailability in data set [2] turned out to be 75%.

Regarding `O=C(N[C@H](c1cn2ncc(CN3C[C@@H](C(F)(F)F)NC3=O)cc2n1)C1CCC(F)(F)CC1)c1conc1CF` [Example 7, N—[(S)-(4,4-Difluorocyclohexyl)-[7-[[(4S)-2-oxo-4-(trifluoromethyl)imidazolidin-1-yl]methyl]imidazo[1,2-b]pyridazin-2-yl]methyl]-3-(fluoromethyl)isoxazole-4-carboxamide], the 50% inhibitory concentration (IC50) in data set [1] was 0.0378 µM; against human IL-17A, 0.128 µM. Besides, the bioavailability in data set [2] is 47%.

Turning to `O=C(N[C@H](c1cn2ncc(CN3C[C@@H](C(F)(F)F)NC3=O)cc2n1)C1CCC(F)(F)CC1)c1conc1CCF` [Example 9, N—[(S)-(4,4-Difluorocyclohexyl)-[7-[[(4S)-2-oxo-4-(trifluoromethyl)imidazolidin-1-yl]methyl]imidazo[1,2-b]pyridazin-2-yl]methyl]-3-(2-fluoroethyl)isoxazole-4-carboxamide], the values for the IC50 (in data set [1]; on human IL-17A) were 0.0106 µM and 0.0465 µM, respectively. In addition, the bioavailability in data set [2] was determined as 12%.

For the compound `O=C(N[C@H](c1cn2ncc(CN3C[C@@H](C(F)(F)F)NC3=O)cc2n1)C1CCC(F)(F)CC1)c1conc1C(F)(F)F` [Example 11, N—[(S)-(4,4-Difluorocyclohexyl)-[7-[[(4S)-2-oxo-4-(trifluoromethyl)imidazolidin-1-yl]methyl]imidazo[1,2-b]pyridazin-2-yl]methyl]-3-(trifluoromethyl)isoxazole-4-carboxamide], the IC50 in data set [1] was less than 0.00945 µM; against human IL-17A it was 0.148 µM. In addition, the bioavailability in data set [2] stood at 55%.

As to `O=C(N[C@H](c1cn2ncc(CN3C[C@@H](C(F)(F)F)NC3=O)cc2n1)C1CCC(F)(F)CC1)c1nonc1C(F)F` [Example 18, N—[(S)-(4,4-Difluorocyclohexyl)-[7-[[(4S)-2-oxo-4-(trifluoromethyl)imidazolidin-1-yl]methyl]imidazo[1,2-b]pyridazin-2-yl]methyl]-4-(difluoromethyl)-1,2,5-oxadiazole-3-carboxamide], the IC50 in data set [1] was less than 0.00945 µM; at human IL-17A it was 0.0227 µM.

For `O=C(N[C@H](c1cn2ncc(CN3C[C@@H](C(F)(F)F)NC3=O)cc2n1)C1CCC(F)(F)CC1)c1nonc1C1CC1` [Example 19, 4-Cyclopropyl-N—[(S)-(4,4-difluorocyclohexyl)-[7-[[(4S)-2-oxo-4-(trifluoromethyl)imidazolidin-1-yl]methyl]imidazo[1,2-b]pyridazin-2-yl]methyl]-1,2,5-oxadiazole-3-carboxamide], the bioavailability in data set [2] turned out to be 47%.

Turning to `COc1nonc1C(=O)N[C@H](c1cn2ncc(CN3C[C@@H](C(F)(F)F)NC3=O)cc2n1)C1CCC(F)(F)CC1` [Example 22, N—[(S)-(4,4-Difluorocyclohexyl)-[7-[[(4S)-2-oxo-4-(trifluoromethyl)imidazolidin-1-yl]methyl]imidazo[1,2-b]pyridazin-2-yl]methyl]-4-methoxy-1,2,5-oxadiazole-3-carboxamide], the IC50 was 0.0114 µM in data set [1] and 0.0834 µM on human IL-17A.

Consider `O=C(N[C@H](c1cn2ncc(CN3C[C@@H](C(F)(F)F)NC3=O)cc2n1)C1CCC(F)(F)CC1)c1nonc1CC(F)(F)F` [Example 23, N—[(S)-(4,4-difluorocyclohexyl)-[7-[[(4S)-2-oxo-4-(trifluoromethyl)imidazolidin-1-yl]methyl]imidazo[1,2-b]pyridazin-2-yl]methyl]-4-(2,2,2-trifluoroethyl)-1,2,5-oxadiazole-3-carboxamide], for which the half-inhibitory concentration (IC50) is less than 0.00945 µM in data set [1] and 0.0149 µM against human IL-17A.

Take `COC[C@H](c1cnn2cc([C@@H](NC(=O)c3nonc3C)C3CCC(F)(F)CC3)nc2c1)N1C[C@@H](C(F)(F)F)NC1=O` [Example 24, N—[(S)-(4,4-Difluorocyclohexyl)-[7-[(1S)-2-methoxy-1-[(4S)-2-oxo-4-(trifluoromethyl)imidazolidin-1-yl]ethyl]imidazo[1,2-b]pyridazin-2-yl]methyl]-4-methyl-1,2,5-oxadiazole-3-carboxamide]: the IC50 in data set [1] was less than 0.00945 µM; against human IL-17A it was 0.0093 ± 0.006 µM. The bioavailability in data set [2] worked out at 107%.

Consider `COC[C@H](c1cnn2cc([C@@H](NC(=O)c3nonc3C3CC3)C3CCC(F)(F)CC3)nc2c1)N1C[C@@H](C(F)(F)F)NC1=O` [Example 25, 4-Cyclopropyl-N—[(S)-(4,4-difluorocyclohexyl)-[7-[(1S)-2-methoxy-1-[(4S)-2-oxo-4-(trifluoromethyl)imidazolidin-1-yl]ethyl]imidazo[1,2-b]pyridazin-2-yl]methyl]-1,2,5-oxadiazole-3-carboxamide], for which the figures for the IC50 (in data set [1]; on human IL-17A) were less than 0.00945 µM and 0.0022 ± 0.0016 µM, respectively. The bioavailability in data set [2] stood at 37%.

The values above are taken from patent US12252491B2, “IL-17A inhibitors” (Eli Lilly and Company, priority 2019, dated 2025).
